Legend:
Adenosine receptor A3 = biological target: T1, Adenosine receptor A3 (Homo sapiens, UniProt P0DMS8); format: cell membranes, CHO-K1, Membrane; conditions: cho-k1;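 also: radioligand binding assay with AB-MECA serving as the labeled ligand; in other assays of this panel Not Active means under 50% inhibition at 10 µM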
T1 sequence (P0DMS8 whole entry): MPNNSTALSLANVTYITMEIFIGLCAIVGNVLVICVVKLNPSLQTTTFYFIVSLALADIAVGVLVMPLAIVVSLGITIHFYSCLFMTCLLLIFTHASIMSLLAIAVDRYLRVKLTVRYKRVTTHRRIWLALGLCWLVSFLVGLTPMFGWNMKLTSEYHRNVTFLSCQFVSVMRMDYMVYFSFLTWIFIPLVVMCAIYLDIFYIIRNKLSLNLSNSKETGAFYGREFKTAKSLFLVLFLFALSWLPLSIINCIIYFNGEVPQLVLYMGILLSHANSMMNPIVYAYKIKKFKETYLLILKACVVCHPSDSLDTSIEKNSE

[1] = biological target: Protein phosphatase 3 catalytic subunit alpha (Homo sapiens, UniProt Q08209); design: species or system Escherichia coli;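 also: inhibition of calcineurin (PP2B) enzyme activity, measured with DiFMUP as the substrate; in other assays of this panel Not Active means under 50% inhibition at 10 µM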
[2] = DRUGMATRIX: Atrial Natriuretic Factor (ANF) radioligand binding (ligand: [125I] ANF (rat)); format: cell membranes, Cavia porcellus, Dunkin-Hartley, Adrenal gland, Membrane; conditions: Not Active = under 50% inhibition at 10 µM
[3] = biological target: Sigma non-opioid intracellular receptor 1 (Homo sapiens, UniProt Q99720); assay: DRUGMATRIX: Sigma1 radioligand binding (ligand: [3H] Haloperidol); format: cell membranes, Jurkat, Membrane; conditions: jurkat; Not Active = under 50% inhibition at 10 µM
[4] = biological target: T2, 5-hydroxytryptamine receptor 2C (Homo sapiens, UniProt P28335); assay: DRUGMATRIX: Serotonin (5-Hydroxytryptamine) 5-HT2C radioligand binding (ligand: [3H] Mesulergine); format: cell membranes, CHO-K1, Membrane; conditions: cho-k1; Not Active = under 50% inhibition at 10 µM
T2 sequence (P28335 whole entry): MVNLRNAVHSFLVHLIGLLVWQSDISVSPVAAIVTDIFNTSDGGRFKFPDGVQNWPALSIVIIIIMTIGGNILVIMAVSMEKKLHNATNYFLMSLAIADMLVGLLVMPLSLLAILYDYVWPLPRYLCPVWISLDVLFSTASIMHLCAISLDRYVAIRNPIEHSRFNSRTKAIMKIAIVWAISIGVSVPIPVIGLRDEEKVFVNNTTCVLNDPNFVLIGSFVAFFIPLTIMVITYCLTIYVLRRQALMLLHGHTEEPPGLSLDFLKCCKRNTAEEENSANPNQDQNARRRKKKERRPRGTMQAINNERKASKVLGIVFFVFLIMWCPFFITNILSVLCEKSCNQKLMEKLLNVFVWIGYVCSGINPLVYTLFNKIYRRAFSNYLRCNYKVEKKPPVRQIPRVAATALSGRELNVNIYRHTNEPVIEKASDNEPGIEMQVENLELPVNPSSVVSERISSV

[5] = biological target: T3, Nitric oxide synthase, inducible (Mus musculus, UniProt P29477); design: species or system Escherichia coli;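 also: inhibition of iNOS enzyme activity measured with L-arginine as substrate; in other assays of this panel Not Active means under 50% inhibition at 10 µM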
T3 sequence (P29477 whole entry): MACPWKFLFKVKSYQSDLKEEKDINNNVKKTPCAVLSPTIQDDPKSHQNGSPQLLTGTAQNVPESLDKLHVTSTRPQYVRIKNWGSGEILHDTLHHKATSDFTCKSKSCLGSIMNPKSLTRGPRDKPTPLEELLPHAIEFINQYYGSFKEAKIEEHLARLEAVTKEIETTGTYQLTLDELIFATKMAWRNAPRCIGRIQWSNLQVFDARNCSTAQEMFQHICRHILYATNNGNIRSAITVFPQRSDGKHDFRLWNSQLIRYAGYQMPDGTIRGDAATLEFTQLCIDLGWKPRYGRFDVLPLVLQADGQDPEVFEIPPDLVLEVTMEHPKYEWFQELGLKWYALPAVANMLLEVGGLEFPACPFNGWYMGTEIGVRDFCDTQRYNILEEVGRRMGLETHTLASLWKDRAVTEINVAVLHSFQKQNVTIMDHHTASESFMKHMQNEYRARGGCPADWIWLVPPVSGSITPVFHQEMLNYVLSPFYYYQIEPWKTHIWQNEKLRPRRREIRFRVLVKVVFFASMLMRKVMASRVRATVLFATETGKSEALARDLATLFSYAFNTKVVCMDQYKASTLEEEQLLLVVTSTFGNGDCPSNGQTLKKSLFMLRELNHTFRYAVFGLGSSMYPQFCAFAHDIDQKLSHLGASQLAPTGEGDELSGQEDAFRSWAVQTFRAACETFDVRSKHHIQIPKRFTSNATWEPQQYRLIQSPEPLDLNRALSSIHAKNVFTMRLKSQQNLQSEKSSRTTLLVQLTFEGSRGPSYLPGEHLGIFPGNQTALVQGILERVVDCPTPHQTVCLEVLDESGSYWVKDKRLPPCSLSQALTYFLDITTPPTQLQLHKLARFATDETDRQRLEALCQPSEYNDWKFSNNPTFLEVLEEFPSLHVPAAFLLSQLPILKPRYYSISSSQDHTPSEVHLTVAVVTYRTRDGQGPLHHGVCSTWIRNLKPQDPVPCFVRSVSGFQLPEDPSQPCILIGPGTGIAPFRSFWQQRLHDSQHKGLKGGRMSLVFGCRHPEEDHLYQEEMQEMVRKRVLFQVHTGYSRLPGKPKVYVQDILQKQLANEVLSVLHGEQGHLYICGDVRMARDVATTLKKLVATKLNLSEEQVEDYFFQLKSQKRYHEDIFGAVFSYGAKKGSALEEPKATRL

Neutrophil elastase = biological target: T4, Neutrophil elastase (Homo sapiens, UniProt P08246); format: tissue-based;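 also: inhibition of neutrophil elastase enzyme activity, measured with a p-nitroanilide-linked peptide substrate; in other assays of this panel Not Active means under 50% inhibition at 10 µM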
T4 sequence (P08246 whole entry): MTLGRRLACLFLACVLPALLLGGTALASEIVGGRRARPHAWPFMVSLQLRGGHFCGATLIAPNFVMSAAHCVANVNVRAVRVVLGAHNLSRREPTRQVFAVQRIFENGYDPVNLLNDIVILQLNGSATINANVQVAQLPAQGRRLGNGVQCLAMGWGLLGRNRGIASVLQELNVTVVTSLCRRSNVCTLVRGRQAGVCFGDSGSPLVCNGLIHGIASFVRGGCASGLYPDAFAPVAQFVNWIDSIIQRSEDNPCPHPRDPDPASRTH

Chain of Sigma non-opioid intracellular receptor 1 (Q99720 whole entry): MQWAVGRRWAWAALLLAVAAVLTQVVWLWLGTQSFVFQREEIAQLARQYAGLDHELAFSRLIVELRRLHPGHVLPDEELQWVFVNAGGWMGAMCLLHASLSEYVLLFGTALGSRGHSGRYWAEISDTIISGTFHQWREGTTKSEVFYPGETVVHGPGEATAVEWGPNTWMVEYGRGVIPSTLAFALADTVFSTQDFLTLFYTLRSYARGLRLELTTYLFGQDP

SODIUM ORTHOVANAD
Not Active: IC50 (Adenosine receptor A3) | Ki (Adenosine receptor A3) | IC50 [1] | Ki [1] | IC50 [2] | Ki [2] | IC50 [3] | Ki [3] | IC50 [4] | Ki [4] | IC50 [5] | Ki [5] | IC50 (Neutrophil elastase) | Ki (Neutrophil elastase)

— ChEMBL document CHEMBL1909046, “DrugMatrix in vitro pharmacology data”
